How the values were obtained:
[1] = system: rat pheochromocytoma cells (PC12); assay: cGMP accumulation in PC12 cells (nitric oxide-mediated activity); assay type: cell-based; conditions: for EC50: Rattus norvegicus, PC-12, 0.75 h, 30 μM YC-1, read-out: EC50 (effective concentration producing half maximal response), cGMP accumulation
Experimental: The formation of cyclic guanosine-3′,5′ monophosphate (cGMP) in cells in the eye is involved in the regulation of aqueous humor flow. Thus, elevation of cGMP levels leads to decreased aqueous humor production and reduction of intraocular pressure.
We measured the effects of test drugs on cGMP formation in a well established cell assay.
Undifferentiated pheochromocytoma cells (PC12) were used. The monolayer cells were incubated for 45 min in Hank's Balanced Salt Solution enriched with 10 mM Hepes, 5 mM MgCl2 and 0.05% ascorbic acid at the final pH of 7.4 and containing 100 μM of the phosphodiesterase inhibitor, isomethyl-butyl-xanthine (IBMX), 30 μM of the guanylyl cyclase […], YC-1, and the test drugs at the appropriate concentration. The reaction was terminated by the removal of the incubating buffer followed by the addition of […] of 100% ice-cold ethanol. The plate was then dried under hot air steam and the residue dissolved, extracted and analysed using commercially available cyclic cGMP enzyme immunoassay kit.

[2] = system: carbomer-evoked increase in IOP; assay: Intraocular pressure in carbomer-treated rabbits; assay type: in vivo, rabbit
Experimental: (§1) Male NZW rabbits ranging from 3-5 kgs of body weight were used in this study. Briefly, the ability of Latanoprost nitroderivative (compound 4, EXAMPLE 3) at reducing intraocular pressure (IOP) was tested in animals previously treated with intracameral injection of 0.25% carbomer solution installation until after a stable increase of the intraocular pressure was reached. In this particular study, test drugs were administered to one eye with the dosage schedule of 1 drop/eye/day for 5 days a week with a physiologic solution containing 0.005% of control or test compounds. The IOP was monitored 3 h after drug application, two-three times weekly for a total of 4 weeks. This concentration was chosen as it reflects that of latanoprost isopropyl ester currently used in clinic to treat the increase of IOP observed in glaucoma patients. Furthermore, at each visit, about 200 μl of aqueous humor was collected using a 30 gauge needle from both eyes under lidocaine anesthesia for further biochemical evaluation of cGMP, camp and nitrite/nitrate contents.

[3] = system: aqueous humor cGMP, cAMP and NOx; assay: cGMP, cAMP and NOx content of aqueous humor in carbomer-treated rabbits; assay type: in vivo, rabbit; conditions: for NOx / cAMP / cGMP: aqueous humor; for NOx in intraocular aqueous humor (in words) / cGMP in intraocular aqueous humor (in words) / intraocular cAMP (in words): over the 4-week treatment
Experimental: as §1

[4] = 45 min, 100 μM IBMX, 30 μM YC-1
[5] = Day 2, 0.005% solution, 1 drop/eye/day, 3 h after application
[6] = Day 7, 0.005% solution, 1 drop/eye/day, 3 h after application
[7] = Day 10, 0.005% solution, 1 drop/eye/day, 3 h after application
[8] = Day 15, 0.005% solution, 1 drop/eye/day, 3 h after application
[9] = Day 17, 0.005% solution, 1 drop/eye/day, 3 h after application
[10] = Day 23, 0.005% solution, 1 drop/eye/day, 3 h after application
[11] = Day 25, 0.005% solution, 1 drop/eye/day, 3 h after application
[12] = Pre-treatment (baseline after intracameral 0.25% carbomer)

EC50 ([1]; 45 min, 100 μM IBMX) [nM] | Compound | Emax (maximum effect), cGMP accumulation [1, 4] | IOP [2, 5] [mmHg] | IOP [2, 6] [mmHg] | IOP [2, 7] [mmHg] | IOP [2, 8] [mmHg] | IOP [2, 9] [mmHg] | IOP [2, 10] [mmHg] | IOP [2, 11] [mmHg] | IOP [2, 12] [mmHg] | NOx ([3]; I Week) [nmol/mg prot] | cAMP ([3]; I Week) [fmol/mg prot] | cGMP ([3]; I Week) [fmol/mg prot] | NOx ([3]; II Week) [nmol/mg prot] | cAMP ([3]; II Week) [fmol/mg prot] | cGMP ([3]; II Week) [fmol/mg prot] | NOx ([3]; III Week) [nmol/mg prot] | cAMP ([3]; III Week) [fmol/mg prot] | cGMP ([3]; III Week) [fmol/mg prot] | NOx ([3]; IV Week) [nmol/mg prot] | further results
4400 | O=C(CCC/C=C\C[C@@H]1[C@@H](CC[C@@H](O)CCc2ccccc2)[C@H](O)C[C@@H]1O)Oc1cccc(CO[N+](=O)[O-])c1 (relative stereo) [Compound 4, [1R-[1α(Z),2β(R*),3α,5α]]-7-[3,5-dihydroxy-2-(3-hydroxy-5-phenylpentyl)cyclopentyl]-5-heptenoic acid 3-(nitrooxymethyl)phenyl ester] | 450 % over vehicle | 31 ± 1 | 26 ± 1 | 20 ± 1 | 18 ± 2 | 16 ± 1 | 15 ± 1 | 14 ± 1 | 42 ± 2 | 22 ± 2 | 600 ± 25 | 102 ± 5 | 25 ± 3 | 650 ± 31 | 125 ± 5 | 26 ± 3 | 680 ± 28 | 140 ± 5 | 28 ± 3 | decrease of intraocular pressure ([2]; by the end of the study (4 weeks)): over 65%; decrease of intraocular pressure ([2]; within 7 days of repeated treatments): about 50%; cAMP ([3]; IV Week): 660 ± 22 fmol/mg prot; cGMP ([3]; IV Week): 160 ± 5 fmol/mg prot; NOx ([3]; Pre-treatment): 17 ± 1 nmol/mg prot; cAMP ([3]; Pre-treatment): 520 ± 20 fmol/mg prot; cGMP ([3]; Pre-treatment): 88 ± 5 fmol/mg prot; NOx in intraocular aqueous humor (in words) [3]: increased; cGMP in intraocular aqueous humor (in words) [3]: increased; intraocular cAMP (in words) [3]: remained unaltered
 | CC(C)OC(=O)CCC/C=C\C[C@@H]1[C@@H](CC[C@@H](O)CCc2ccccc2)[C@H](O)C[C@@H]1O [Latanoprost, reference compound] | Not effective |  |  |  |  |  |  |  |  |  |  |  |  |  |  |  |  |  |  | cGMP accumulation (in words) ([1]; 1-50 μM): not shared; EC50 (effective concentration producing half maximal response), cGMP accumulation [1, 4]: Not effective
2400 | O=C(CCC/C=C\C[C@@H]1[C@@H](CC[C@@H](O)CCc2ccccc2)[C@H](O)C[C@@H]1O)OCCCCO[N+](=O)[O-] (relative stereo) [Compound 1, [1R-[1α(Z),2α(R*),3α,5α]]-7-[3,5-dihydroxy-2-(3-hydroxy-5-phenylpentyl)cyclopentyl]-5-heptenoic acid 4-(nitrooxy)butyl ester] | 290 % over vehicle |  |  |  |  |  |  |  |  |  |  |  |  |  |  |  |  |  |  | 
1500 | COc1cc(/C=C/C(=O)OCCCCO[N+](=O)[O-])ccc1OC(=O)CCC/C=C\C[C@@H]1[C@@H](CC[C@@H](O)CCc2ccccc2)[C@H](O)C[C@@H]1O (relative stereo) [Compound 11, [1R-[1α(Z), 2β(R*),3α,5α]]-7-[3,5-dihydroxy-2-(3-hydroxy-5-phenylpentyl)cyclopentyl]-5-heptenoicacid[2-methoxy-4-[2-propenoyloxy(4-nitrooxybutyl)]]phenyl ester] | 480 % over vehicle |  |  |  |  |  |  |  |  |  |  |  |  |  |  |  |  |  |  | 
 | CC(C)OC(=O)CCC/C=C\C[C@@H]1[C@@H](CC[C@@H](O)CCc2ccccc2)[C@H](O)C[C@@H]1O [Latanoprost isopropyl ester, reference compound] |  | 34 ± 2 | 33 ± 3 | 30 ± 1 | 31 ± 2 | 30 ± 2 | 32 ± 2 | 30 ± 2 | 37 ± 2 | 18 ± 2 | 550 ± 22 | 88 ± 6 | 18 ± 1 | 600 ± 30 | 98 ± 6 | 19 ± 2 | 620 ± 31 | 99 ± 6 | 19 ± 2 | change of intraocular pressure (in words) ([2]; 0.005% solution, 1 drop/eye/day, 4 weeks): nor its isopropyl derivative elicited any appreciable change; cAMP ([3]; IV Week): 625 ± 31 fmol/mg prot; cGMP ([3]; IV Week): 100 ± 6 fmol/mg prot; NOx ([3]; Pre-treatment): 16 ± 1 nmol/mg prot; cAMP ([3]; Pre-treatment): 510 ± 18 fmol/mg prot; cGMP ([3]; Pre-treatment): 87 ± 6 fmol/mg prot; NOx in intraocular aqueous humor (in words) [3]: did not significantly affect; cGMP in intraocular aqueous humor (in words) [3]: did not significantly affect; intraocular cAMP (in words) [3]: did not significantly affect

From patent US8058467B2, “Prostaglandin derivatives” (Nicox S.A., priority 2004, dated 2011)
